Results on 21 compounds are retold here after patent US20040204455A1, “Piperidine derivative rennin inhibitors” (priority 2003, published 2004).

The assay deals with T1, human renin (Homo sapiens, UniProt P00797).
T1 sequence (P00797 67-406): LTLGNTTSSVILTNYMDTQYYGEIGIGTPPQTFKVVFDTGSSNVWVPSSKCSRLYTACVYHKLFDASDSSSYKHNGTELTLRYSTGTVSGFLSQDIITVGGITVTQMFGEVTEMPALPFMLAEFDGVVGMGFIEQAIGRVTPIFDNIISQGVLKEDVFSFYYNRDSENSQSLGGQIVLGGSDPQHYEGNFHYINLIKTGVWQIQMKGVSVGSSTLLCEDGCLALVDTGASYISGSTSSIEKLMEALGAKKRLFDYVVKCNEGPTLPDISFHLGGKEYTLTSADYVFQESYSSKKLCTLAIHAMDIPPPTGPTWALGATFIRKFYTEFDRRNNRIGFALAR
The assay is described as follows: Determination of Renin IC50 by tGFP FRET Assay. Type of assay: biochemical. Particulars: Human recombinant renin, tandem GFP substrate 650 nM, renin and compound incubated 60 minutes before substrate, pH 7.4. The text has this:
Determination of Renin IC50 by tGFP FRET Assay
The tGFP FRET (Green Fluorescent Protein Fluorescence Resonance Energy Transfer) assay utilizes a tandem GFP substrate (60 kDa) containing nine amino acid recognition sequences for human renin flanked by two GFP proteins. The assay is used to determine the ability of a compound to act as an inhibitor of renin enzymatic activity by determination of that concentration of test compound that inhibits by 50% (IC50) the ability of renin to cleave the tandem GFP substrate. The IC50 values are determined over an 11-point curve at concentrations of 100 μM to […]. Each compound concentration used to construct the curve was dependent on renin inhibitor potency. For example, subnanomolar IC50 values were determined over an 11-point curve at concentrations of 10 μM to […]. All other IC50 values were determined over an 11-point curve at concentrations of 100 μM to 0.0065 μM. The concentrations were achieved by diluting a 9.1 nM stock of Human recombinant renin in the appropriate amount of buffer containing 50 mM HEPES, 1 mM EDTA, 1% PEG (8000 MW), 1 mM DTT, 0.1% BSA, pH 7.4 to achieve the final concentration of 50.4 μIU. The tGFP substrate stock solution of 43 μM was diluted with the appropriate amount of the above buffer to obtain the final concentration of 650 nM. In addition, 1 μl of the compound is diluted in DSMO to represent an […] log scale (5% final). The renin and compound are added to a 384 capacity plate by an automated robot (BIOMEK). The plate is incubated for 60 minutes; upon completion the tGFP substrate is added.
The IC50 is determined by monitoring the increase in […] at 432/432 nm excitation, 530/475 nm emission with a cutoff at 515/455 nm, in a fluorometric plate reader.
With `O=C(O)c1ccc2cc(CN[C@@H]3CNCC[C@@H]3c3ccc(OCCCOCc4ccccc4F)cc3)ccc2c1` [6-[(4-{4-[3-(2-Fluoro-benyloxy)-propoxy]-phenyl}-piperidin-3-ylamino)-methyl]-naphthalene-2-carboxylic acid], the IC50 – broadly, the concentration at which inhibition is half-maximal – is > 1000 nM.

Consider `COc1ccccc1COCCCOc1ccc([C@H]2CCNC[C@H]2NCc2ccc3cccnc3c2)cc1` (racemic) [(4-{4-[3-(2-methoxy-benzyloxy)-propoxy]-phenyl}-piperidin-3-yl)-quinolin-7-ylmethyl-amine], for which the IC50 amounted to 175 nM.

In the case of `O=C1CCCN1CCOc1cccc(CN[C@H]2CNCC[C@H]2c2ccc(OCCCOCc3ccccc3F)cc2)c1` (racemic) [1-(2-{3-[(4-{4-[3-(2-Fluoro-benzyloxy)-propoxy]-phenyl}-piperidin-3-ylamino)-methyl]-phenoxy}-ethyl)-pyrrolidine-2-one], the IC50 is 932 nM.

`COc1ccccc1COCCCOc1ccc([C@H]2CCNC[C@H]2NCc2ccc3[nH]ccc3c2)cc1` (racemic) [(1H-indol-5-ylmethyl)-(4-{4-[3-(2-methoxy-benzyloxy)-propoxy]-phenyl}-piperidin-3-yl)-amine]: the IC50 was > 1000 nM.

Turning to `COc1ccccc1COCCCOc1ccc([C@H]2CCNC[C@H]2NCc2ccc3c(C(=O)O)cccc3c2)cc1` [6-[(4-[4-(2-methoxy-benzyloxy)-propoxyl]-phenyl}-piperidin-3-ylamino)-methyl]-naphthalene-1-carboxylic acid], the IC50 came to 2600 nM.

In the case of `COC(=O)c1cccc(CN[C@@H]2CNCC[C@@H]2c2ccc(OCCCOCc3ccccc3F)cc2)n1` (racemic) [6-[(4-{4-[3-(2-Fluoro-benzyloxy)-propoxy]-phenyl}-piperidin-3-ylamino)-methyl]-pyridine-2-carboxylic acid methyl ester], the half-inhibitory concentration (IC50) was 6980 nM.

Consider `COc1ccccc1COCCCOc1ccc([C@H]2CCNC[C@H]2NCc2ccc3occc3c2)cc1` (racemic) [benzofuran-5-ylmethyl-(4-{4-[3-(2-methoxy-benzyloxy)-propoxy]-phenyl}-piperidin-3-yl)-amine], for which the IC50 was found to be 393 nM.

As for `COC(=O)c1ccc2cc(CN[C@@H]3CNCC[C@@H]3c3ccc(OCCCOCc4ccccc4OC)cc3)ccc2c1` [6-[(4-{4-[3-(2-Methoxy-benyloxy)-propoxy]-phenyl}-piperidin-3-ylamino)-methyl]-naphthalene-2-carboxylic acid methyl ester], the IC50 is 329 nM.

Turning to `O=S(=O)(N[C@@H]1CNCC[C@@H]1c1ccc(OCCCOCc2ccccc2F)cc1)c1ccc2ccccc2c1` (racemic) [Naphthalene-2-sulfonic acid (4-{4-[3-(2-fluoro-benzyloxy)-propoxy]-phenyl}-piperidin-3-yl)-amide], the half-inhibitory concentration (IC50) amounted to 693 nM.

For `O=C1CCC(=O)N1CCOc1cccc(CN[C@H]2CNCC[C@H]2c2ccc(OCCCOCc3ccccc3F)cc2)c1` (racemic) [1-(2-{3-[(4-{4-[3-(2-Fluoro-benzyloxy)-propoxy]-phenyl}-piperidin-3-ylamino)-methyl]-phenoxy}-ethyl)-pyrrolidine-2,5-dione], the IC50 came to 1400 nM.

In the case of `COc1ccccc1COCCCOc1ccc([C@H]2CCNC[C@H]2NCc2ccc3ccccc3c2)cc1` (racemic) [(4-{4-[3-(2-methoxy-benzyloxy)-propoxy]-phenyl}-piperidin-3-yl)-naphthalen-2-ylmethyl-amine], the IC50 was found to be 87 nM.

`COc1ccccc1COCCCOc1ccc([C@H]2CCNC[C@H]2NC(=O)c2cccc3ccccc23)cc1` (racemic) [naphthalene-1-carboxylic acid (4-{4-[3-(2-methoxy-benzyloxy)-propoxy]-phenyl}-piperidin-3-yl)-amide]: the IC50 was > 1000 nM.

In the case of `COc1ccc2cc(CN[C@@H]3CNCC[C@@H]3c3ccc(OCCCOCc4ccccc4OC)cc3)ccc2c1` (racemic) [(4-{4-[3-(2-methoxy-benzyloxy)-propoxy]-phenyl}-piperidin-3-yl)-(6-methoxy-naphthalen-2-ylmethyl)-amine], the IC50 is 74.3 nM.

As for `COC(=O)c1cccc2cc(CN[C@@H]3CNCC[C@@H]3c3ccc(OCCCOCc4ccccc4OC)cc3)ccc12` [6-[(4-[3-(2-methoxy-benzyloxy)-propoxyl]-phenyl}-piperidin-3-ylamino)-methyl]-naphthalene-1-carboxylic acid methyl ester], the IC50 came to 282 nM.

In the case of `Fc1ccccc1COCCCOc1ccc([C@@H]2CCNC[C@@H]2NCc2ccc(F)c(C(F)(F)F)c2)cc1` (racemic) [(4-{4-[3-(2-fluoro-benzyloxy)-propoxy]-phenyl}-piperidin-3-yl)-(4-fluoro-3-trifluoromethyl-benzyl)-amine], the IC50 is 454 nM.

In the case of `COc1ccccc1COCCCOc1ccc([C@H]2CCNC[C@H]2N(C)Cc2ccc3ccccc3c2)cc1` (racemic) [(4-{4-[3-(2-methoxy-benzyloxy)-propoxy]-phenyl}-piperidin-3-yl)-methyl-naphthalen-2-ylmethyl-amine], the IC50 worked out at 573 nM.

In the case of `COc1ccccc1COCCCOc1ccc([C@H]2CCNC[C@H]2NCc2ccc3c(c2)NCCC3)cc1` (racemic) [(4-{4-[3-(2-methoxy-benzyloxy)-propoxy]-phenyl}-piperidin-3-yl)-(1,2,3,4-tetrahydro-quinolin-7-ylmethyl)-amine], the IC50 is 226 nM.

With `COc1ccccc1COCCCOc1ccc([C@H]2CCNC[C@H]2NCc2ccc3cc(O)ccc3c2)cc1` (racemic) [6-[(4-{4-[3-(2-methoxy-benzyloxy)-propoxy]-phenyl}-piperidin-3-ylamino)-methyl]-naphthalen-2-ol], the IC50 was > 1000 nM.

With `COC(=O)COc1cccc(CN[C@H]2CNCC[C@H]2c2ccc(OCCCOCc3ccccc3F)cc2)c1` (racemic) [{3-[(4-{4-[3-(2-Fluoro-benzyloxy)-propoxy]-phenyl}-piperidin-3-ylamino)-methyl]-phenoxy}-acetic acid methyl ester], the IC50 is 924 nM.

For the compound `COC(=O)c1ccc2cc(CN[C@@H]3CNCC[C@@H]3c3ccc(OCCCOCc4ccccc4F)cc3)ccc2c1` [6-[(4-{4-[3-(2-Fluoro-benyloxy)-propoxy]-phenyl}-piperidin-3-ylamino)-methyl]-naphthalene-2-carboxylic acid methyl ester], the IC50 turned out to be 877 nM.

Take `COc1ccccc1COCCCOc1ccc([C@H]2CCNC[C@H]2NCc2ccc3c(c2)N(CCN(C)C)CCC3)cc1` (racemic) [[1-(2-dimethylamino-ethyl)-1,2,3,4-tetrahydro-quinolin-7-ylmethyl]-(4-{4-[3-(2-methoxybenzyloxy)-propoxy]-phenyl}-piperidin-3-yl)-amine]: the IC50 is > 1000 nM.
